Tests used:
Digitaria sanguinalis [1] = assay: Comparison experiment (post-emergence) against racemate / S configuration; assay type: in vivo; conditions: 30 g/ha; 3-4 weeks after sowing, 4-5 leaf-stage of weed, 25DAA
Echinochloa crusgali [2] = assay: Weed control effect evaluation in rice field; assay type: in vivo; conditions: 60 g/ha; rice field pot, 14 days after treatment; ALS-inhibitor resistant weed from Heilongjiang
Description: (§1) The activity level criteria for harmful plant damage (i.e., growth control rate) are as follows: • Level 5: growth control rate is above 85%; • Level 4: growth control rate is greater than or equal to 60% and less than 85%; • Level 3: growth control rate is greater than or equal to 40% and less than 60%; • Level 2: growth control rate is greater than or equal to 20% and less than 40%; • Level 1: growth control rate is greater than or equal to 5% and less than 20%; • Level 0: growth control rate is less than 5%.
(§2) Rice field soil was loaded into a 1/1,000,000 ha pot. The seeds of Echinochloa crusgali, Scirpus juncoides, Bidens tripartita, Sagittaria trifolia, Monochoria vaginalis and Leptochloa chinensis were sowed and gently covered with soil, then left to stand still in greenhouse in the state of 0.5-1 cm of water storage. The tuber of Sagittaria trifolia was planted in the next day or 2 days later. It was kept at 3-4 cm of water storage thereafter. The weeds were treated by dripping the WP or SC water diluents prepared according to the common preparation method of the compounds of the present invention with pipette homogeneously to achieve specified effective amount when Echinochloa crusgali, Scirpus juncoides, Bidens tripartita, Monochoria vaginalis and Leptochloa chinensis reached 0.5 leaf stage and Sagittaria trifolia reached the time point of primary leaf stage.
(§3) The fertility condition of Echinochloa crusgali, Scirpus juncoides, Bidens tripartita, Leptochloa chinensis, Sagittaria trifolia and Monochoria vaginalis 14 days after the treatment of the compound of the invention and the fertility condition of rice 21 days after the treatment of the compound of the invention respectively with the naked eye. Evaluate the weed control effect with 0-5 activity standard level. Many compounds show excellent activity and selectivity.

Monochoria vaginalis = assay: Weed control effect evaluation in rice field; assay type: in vivo; conditions: 60 g/ha; rice field pot, 14 days after treatment; ALS-inhibitor resistant weed from Heilongjiang
Description: as §1, §2, §3

Leptochloa chinensis [3] = assay: Weed control effect evaluation in rice field; assay type: in vivo; conditions: 60 g/ha; rice field pot, 14 days after treatment
Description: as §1, §2, §3

Sagittaria trifolia = assay: Weed control effect evaluation in rice field; assay type: in vivo; conditions: 60 g/ha; rice field pot, 14 days after treatment; ALS-inhibitor resistant weed from Heilongjiang
Description: as §1, §2, §3

Rice(Longyang 16) = assay: Comparison experiment (post-emergence), crop safety on direct seeding rice; assay type: in vivo
Description: (§4) The above growth control rates are fresh weight control rates.
(§5) Experiment on weeding effect in post-emergence stage: monocotyledonous and dicotyledonous weed seeds (Descurainia sophia, Capsella bursa-pastoris, Galium aparine, Stellaria media, Lithospermum arvense, Rorippa indica, Alopecurus aequalis, Beckmannia syzigachne, Sclerochloa dura, Phleum paniculatum, Bromus japonicus, Aegilops tauschii, Phalaris arundinacea, Amaranthus retroflexus, Chenopodiaceae, Commelina communis, Sonchus arvensis, convolvulus arvensis, Cirsium setosum, Solanum nigrum, Acalypha australis, Digitaria sanguinalis, Echinochloa crusgalli, Setaria viridis, Setaria glauca, Leptochloa chinensis, Monochoria vaginalis, Sagittaria trifolia, Scirpus juncoides, Cyperus rotundus, Cyperus iria, Cyperus difformis, Fimbristylis, Portulaca oleracea, Xanthium sibiricum, Pharbitis nil) and major crop seeds (wheat, corn, rice, soybean, cotton, oilseed rape, millet, sorghum, potato, sesame, ricinus) were placed in plastic pots filled with soil, then covered with 0.5-2 cm of soil, allowed to grow in a good greenhouse environment. After 2 weeks of sowing, the test plants were treated in the 2 leaf stage. The tested compounds of the present invention were respectively dissolved in acetone, then added with Tween 80 and 1.5 liter/ha of emulsifiable concentrate of methyl oleate as synergist, diluted with a certain amount of water to obtain a solution with a certain concentration, and sprayed with a spray tower onto the plants. After the application, the plants were cultured for 15 days in the greenhouse, and then the experimental results of the weeding were counted. The doses of the used compounds were 500, 250, 125, 60, 30, 15 g/ha, and the averages were obtained by repeating for three times.
(§6) If there is no clear marker, the post-seedling test conditions are the same as above, and the experimental results are shown in Tables 4-7.
Longyang 16 is an important cultivated variety representative of long-grain fragrant rice in northeast China. Long-grain fragrant rice is sensitive to herbicides and prone to drug damage, especially HPPD herbicides such as mesotrione and benzobicylon. […] It was not consistent with the well-known structure-activity relationship that aryloxyphenoxypropionic acid herbicides and phenoxypropionic acid herbicides in effective form have high activity to weeds and heavy damage to crops, and in ineffective form have almost no activity.

Rice = assay: Transplanted rice safety evaluation; assay type: in vivo, rice (japonica rice/Indica rice); conditions: 60 g/ha; transplanted 3 leaf stage rice, 21 days after treatment
Description: as §1
In addition, the rice field soil that loaded into the 1/1,000,000 ha pot was leveled to keep water storage at 3-4 cm depth. The 3 leaf stage rice (japonica rice/Indica rice) was transplanted at 3 cm of transplanting depth the next day. The compound of the present invention was treated by the same way after 5 days of transplantation.
as §3

Echinochloa crusgali [4] = assay: Weeding effect in post-emergence stage; assay type: in vivo; conditions: 250 g/ha; 2 leaf stage; 15 days after application; fresh weight control rate
Outline: (§7)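 Activity graded 0 (<5%) to 5 (>85%) from fresh-weight control rate, averaged over three repeats, 15 days after a spray-tower application. Plants at 2-leaf stage (2 weeks post-sowing) received 15–500 g/ha of compound formulated in acetone, Tween 80 and methyl oleate synergist (1.5 L/ha).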

Digitaria sanguinalis [5] = assay: Weeding effect in post-emergence stage; assay type: in vivo; conditions: 250 g/ha; 2 leaf stage; 15 days after application; fresh weight control rate
Outline: as §7

Setaria viridis = assay: Weeding effect in post-emergence stage; assay type: in vivo; conditions: 250 g/ha; 2 leaf stage; 15 days after application; fresh weight control rate
Outline: as §7

Amaranthus retroflexus = assay: Weeding effect in post-emergence stage; assay type: in vivo; conditions: 250 g/ha; 2 leaf stage; 15 days after application; fresh weight control rate
Outline: as §7

Abutilon theophrasti [6] = assay: Weeding effect in post-emergence stage; assay type: in vivo; conditions: 250 g/ha; 2 leaf stage; 15 days after application; fresh weight control rate
Outline: as §7

Green Setaria viridis = assay: Comparison experiment (post-emergence) against racemate / S configuration; assay type: in vivo; conditions: 3-4 weeks after sowing, 4-5 leaf-stage of weed
Description: as §4
as §5, with “After 2 weeks of sowing, the test plants were treated in the 2 leaf stage.” left out, “After the application, the plants were cultured for 15 days in the greenhouse, and then the experimental results of the weeding were counted. The doses of the used compounds were 500, 250, 125, 60, 30, 15 g/ha, and the averages were obtained by repeating for three times.” left out
as §6

Abutilon theophrasti [7] = assay: as above; assay type: in vivo; conditions: 30 g/ha; 3-4 weeks after sowing, 4-5 leaf-stage of weed, 25DAA
Description: as §4
as §5, with “After 2 weeks of sowing, the test plants were treated in the 2 leaf stage.” left out, “After the application, the plants were cultured for 15 days in the greenhouse, and then the experimental results of the weeding were counted. The doses of the used compounds were 500, 250, 125, 60, 30, 15 g/ha, and the averages were obtained by repeating for three times.” left out
as §6

Leptochloa chinensis [8] = assay: as above; assay type: in vivo
Description: as §4
as §5, with “After 2 weeks of sowing, the test plants were treated in the 2 leaf stage.” left out, “After the application, the plants were cultured for 15 days in the greenhouse, and then the experimental results of the weeding were counted. The doses of the used compounds were 500, 250, 125, 60, 30, 15 g/ha, and the averages were obtained by repeating for three times.” left out
as §6

[9] = system: key weeds such as Digitaria sanguinalis, Leptochloa chinensis; assay: Comparison experiment (post-emergence, Tables 4-7), herbicidal activity on weeds not listed separately; assay type: in vivo; conditions: dose of 125, 60, 30, 15 g/ha
Outline: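 Readout: fresh weight control rate, counted 15 days post-spray and averaged over three replicates. Pot-grown plants (seeds under 0.5-2 cm soil) were treated at the 2 leaf stage, two weeks after sowing, with 15–500 g/ha compound plus methyl oleate synergist at 1.5 liter/ha.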

rice and other crops = assay: Comparison experiment (post-emergence, Tables 4-7), crop safety; assay type: in vivo; conditions: dose of 125, 60, 30, 15 g/ha
Outline: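 Compounds are applied post-emergence by spray tower to plants at the 2 leaf stage, at rates from 15 to 500 g/ha with a methyl oleate synergist. Control is expressed on fresh weight, counted after 15 days in the greenhouse and averaged across three repetitions.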

Row | SMILES | Herbicidal effects of compounds, Echinochloa crusgali, 0-5 activity standard level (Echinochloa crusgali [2]) | Herbicidal effects of compounds, Monochoria vaginalis, 0-5 activity standard level (Monochoria vaginalis) | Herbicidal effects of compounds, Leptochloa chinensis, 0-5 activity standard level (Leptochloa chinensis [3]) | Herbicidal effects of compounds, Sagittaria trifolia, 0-5 activity standard level (Sagittaria trifolia) | Herbicidal effects of compounds, Rice, 0-5 activity standard level (Rice) | weeding effect in post-emergence stage, activity level (growth control rate), Echinochloa crusgali (Echinochloa crusgali [4]) | weeding effect in post-emergence stage, activity level (growth control rate), Digitaria sanguinalis (Digitaria sanguinalis [5]) | weeding effect in post-emergence stage, activity level (growth control rate), Setaria viridis (Setaria viridis) | weeding effect in post-emergence stage, activity level (growth control rate), Amaranthus retroflexus (Amaranthus retroflexus) | weeding effect in post-emergence stage, activity level (growth control rate), Abutilon theophrasti (Abutilon theophrasti [6]) | activity to key weeds such as Digitaria sanguinalis, Leptochloa chinensis compared with the corresponding racemate or S configuration [9] | safety to rice and other crops compared with the corresponding racemate or S configuration (rice and other crops) | other results
1 | CCC[S@@+]([O-])c1c(C(F)(F)F)ccc(C(=O)Nc2nnc(C)o2)c1F [Compound 3] | 5 (Level 5: growth control rate is above 85%) | 5 (Level 5: growth control rate is above 85%) | 5 (Level 5: growth control rate is above 85%) | 5 (Level 5: growth control rate is above 85%) | 0 (Level 0: growth control rate is less than 5%) | 5 (Level 5: growth control rate is above 85%) | 5 (Level 5: growth control rate is above 85%) | 5 (Level 5: growth control rate is above 85%) | 5 (Level 5: growth control rate is above 85%) | 5 (Level 5: growth control rate is above 85%) |  |  | Results of comparison experiment, Digitaria sanguinalis (30 g/ha) (Digitaria sanguinalis [1]): 100%; Results of comparison experiment, Rice(Longyang 16) (250 g/ha) (Rice(Longyang 16); 250 g/ha, 1.5-2 leaf-stage of direct seeding rice variety Longyang 16, 25 DAA): 0%; Results of comparison experiment, Rice(Longyang 16) (500 g/ha) (Rice(Longyang 16); 500 g/ha, 1.5-2 leaf-stage of direct seeding rice variety Longyang 16, 25 DAA): 0%; safety to rice (Longyang 16), in words (Rice(Longyang 16); summary of Table 5): higher safety; Results of comparison experiment, Green Setaria viridis (30 g/ha) (Green Setaria viridis; 30 g/ha, 25 DAA (Table 5)): 75%; Results of comparison experiment, Green Setaria viridis (60 g/ha) (Green Setaria viridis; 60 g/ha, 25DAA): 100%; Results of comparison experiment, Abutilon theophrasti (30 g/ha) (Abutilon theophrasti [7]): 100%; Results of comparison experiment, Leptochloa chinensis (60 g/ha) (Leptochloa chinensis [8]; 60 g/ha, 3-4 weeks after sowing, 4-5 leaf-stage of weed, 25DAA): 85%; Results of comparison experiment, Leptochloa chinensis (125 g/ha) (Leptochloa chinensis [8]; 125 g/ha, 3-4 weeks after sowing, 4-5 leaf-stage of weed, 25 DAA (Table 5)): 100%; activity against key weeds such as Leptochloa chinensis, in words (Leptochloa chinensis [8]; summary of Table 5): better activity
2 | CCCC[S@@+]([O-])c1c(C(F)(F)F)ccc(C(=O)Nc2nnc(C)o2)c1F [Compound 4] | 5 (Level 5: growth control rate is above 85%) | 5 (Level 5: growth control rate is above 85%) | 5 (Level 5: growth control rate is above 85%) | 5 (Level 5: growth control rate is above 85%) | 0 (Level 0: growth control rate is less than 5%) | 5 (Level 5: growth control rate is above 85%) | 5 (Level 5: growth control rate is above 85%) | 5 (Level 5: growth control rate is above 85%) | 5 (Level 5: growth control rate is above 85%) | 5 (Level 5: growth control rate is above 85%) | better activity | higher safety | 
3 | Cc1nnc(NC(=O)c2ccc(C(F)(F)F)c([S@+]([O-])CCCF)c2F)o1 [Compound 26] | 5 (Level 5: growth control rate is above 85%) | 5 (Level 5: growth control rate is above 85%) | 5 (Level 5: growth control rate is above 85%) | 5 (Level 5: growth control rate is above 85%) | 0 (Level 0: growth control rate is less than 5%) | 5 (Level 5: growth control rate is above 85%) | 5 (Level 5: growth control rate is above 85%) | 5 (Level 5: growth control rate is above 85%) | 5 (Level 5: growth control rate is above 85%) | 5 (Level 5: growth control rate is above 85%) | better activity | higher safety | 
